Like-named read-outs stand apart in the source and are kept apart here.
How the values were obtained:
[1] = target: T1, CCK receptors of rat pancreas (Rattus norvegicus, UniProt P30551); assay: Inhibition of binding of sulphated [125I]-CCK8 to receptors of rat pancreas plasma membranes; details: for ratio of the IC50 for the brain receptors to the IC50 for the pancreas receptors: guinea-pig brain / rat pancreas
T1 construct: of rat pancreas plasma membranes; from tissue; host or cells: rat pancreas plasma membranes (SD50 males; animals from IFFA CREDO)
T1 sequence (P30551 1-444): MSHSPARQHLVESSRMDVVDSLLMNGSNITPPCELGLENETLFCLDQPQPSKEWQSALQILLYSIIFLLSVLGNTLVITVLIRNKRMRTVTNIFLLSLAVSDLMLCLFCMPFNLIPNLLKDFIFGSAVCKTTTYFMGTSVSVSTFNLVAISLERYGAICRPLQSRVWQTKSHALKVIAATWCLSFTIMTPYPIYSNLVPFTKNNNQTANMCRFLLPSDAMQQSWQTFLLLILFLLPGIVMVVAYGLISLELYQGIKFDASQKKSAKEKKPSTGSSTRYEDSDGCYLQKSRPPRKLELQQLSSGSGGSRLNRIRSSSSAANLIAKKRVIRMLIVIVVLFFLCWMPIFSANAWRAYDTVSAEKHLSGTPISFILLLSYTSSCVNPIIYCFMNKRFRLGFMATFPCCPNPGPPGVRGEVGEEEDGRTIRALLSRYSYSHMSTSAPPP
From the text: of rat pancreas plasma membranes (SD50 males, IFFA CREDO, 200-225 g)

[2] = target: T2, CCK receptors of guinea-pig brain (Cavia porcellus, UniProt H0VZC5); assay: Inhibition of binding of sulphated [125I]-CCK8 to receptors of guinea-pig brain membranes
T2 construct: of guinea-pig brain membranes; from tissue; host or cells: guinea-pig brain membranes (males; animals from COB LABO)
T2 sequence (H0VZC5 1-426): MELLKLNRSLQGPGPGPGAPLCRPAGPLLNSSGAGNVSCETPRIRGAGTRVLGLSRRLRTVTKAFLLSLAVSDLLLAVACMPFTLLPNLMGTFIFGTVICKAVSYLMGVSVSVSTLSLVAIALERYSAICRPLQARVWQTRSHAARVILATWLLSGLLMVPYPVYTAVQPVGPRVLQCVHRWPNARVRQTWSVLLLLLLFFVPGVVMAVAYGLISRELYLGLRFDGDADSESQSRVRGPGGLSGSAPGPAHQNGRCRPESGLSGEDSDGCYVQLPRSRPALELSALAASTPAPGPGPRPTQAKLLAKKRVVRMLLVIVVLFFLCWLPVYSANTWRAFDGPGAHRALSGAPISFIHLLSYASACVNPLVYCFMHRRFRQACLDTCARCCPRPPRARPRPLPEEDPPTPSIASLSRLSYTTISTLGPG
From the text: of guinea-pig brain membranes (males, COB LABO, 325-350 g) according to the protocol described by INNIS R. B. and SNYDER S. M., Eur. J. Pharmacol., 65, 123-124, 1980.

[3] = IRWIN's tests (behavior); details: for IRWIN (first dose modifying one of the parameters of behavior): male mice; for selectivity ratio: mouse, in vivo
Method: The acute toxicity was evaluated and IRWIN's tests (IRWIN S., Psychopharmacologia, 13, 222-257, 1968) were performed in male mice (20-21 g).

[4] = Acute toxicity; details: mouse, in vivo, male mice
[5] = system: inhibition of gastric emptying caused by sulphated CCK-8; assay: Gastric emptying model in mice: antagonism of the inhibition of gastric emptying caused by sulphated CCK-8; type: in vivo, mice (SWISS male); details: Mus musculus, sulphated CCK-8 80 μg/kg, sc
[6] = guinea-pig brain membranes, read-out: Binding (IC50) [125I]-CCK8-SO4 Brain

SMILES | IC50 [1] [nM] | ratio of the IC50 for the brain receptors to the IC50 for the pancreas receptors [1] | IC50 [2] [nM] | IRWIN (first dose modifying one of the parameters of behavior) [3] [mg/kg] | selectivity ratio [3] | LD50 [4] [mg/kg] | ED50 [5] [mg/kg] | IC50 [2, 6] [nM]
O=C(NC1N=C(c2ccccc2)c2cccc3c2N(CCC3)C1=O)c1cc2ccccc2[nH]1 (centres unmarked) [In, 5-(2-indolylcarbonylamino)-7-phenyl-1,2,3,3a,4,5-hexahydropyrido[3,2,1-jk][1,4]benzodiazepin-4-one] | 3.9 | 104.4 | 407 |  |  |  |  | 
O=C(N[C@H]1N=C(c2ccccc2)c2cccc3c2N(CC3)C1=O)c1cc2ccccc2[nH]1 [Ie, (-)-(4S)-4-(2-Indolylcarbonylamido)-6-phenyl-1,2,3,4-tetrahydropyrrolo[3,2,1-jk][1,4]benzodiazepin-3-one] | 1.5 | 318.0 | 477 | > 1000 | > 11000 | > 1000 | 0.087 | 
O=C(NC1N=C(c2ccccc2)c2cccc3c2N(CC3)C1=O)c1cc2ccccc2[nH]1 (centres unmarked) [Ia, 4-(indol-2-ylcarbonylamino)-phenyl-6-tetrahydro-1,2,3,4-pyrrolo[3,2,1-jk][1,4]benzodiazepin-3-one] | 5.3 | 209.4 | 1110 | > 1000 | > 7600 | > 1000 | 0.104 | 
O=C(NC1N=C(c2ccccc2F)c2cccc3c2N(CC3)C1=O)c1cc2ccccc2[nH]1 (centres unmarked) [Ig] | 0.023 | 15913 | 366 | > 300 | > 3900 | > 1000 | 0.076 | 
O=C(NC1N=C(c2ccccc2)c2cccc3c2N(CC3)C1=O)c1cccc(I)c1 (centres unmarked) [Ic, 4-(3-Iodobenzoylamino)-6-phenyl-1,2,3,4-pyrrolo[3,2,1-j,k][1,4]benzodiazepin-3-one] | 45 | 195.6 |  |  |  |  |  | 8800
O=C(NC1N=C(c2ccccc2)c2cccc3c2N(CC3)C1=O)c1ccc(Cl)cc1 (centres unmarked) [Ib, 4-(4-Chlorobenzoylamino)-6-phenyl-1,2,3,4-tetrahydropyrrolo-[3,2,1-jk]benzodiazepin[1,4]-3-one] | 37 | 83.8 |  |  |  |  |  | 3100
CN1C(=O)C(NC(=O)c2cc3ccccc3[nH]2)N=C(c2ccccc2)c2ccccc21 (racemic) [IIa, reference compound] |  |  |  |  |  | > 600 | 0.05 | 
O=C(NC1N=C(c2ccccc2F)c2cc(Cl)cc3c2N(CC3)C1=O)c1cc2cc(Cl)ccc2[nH]1 (centres unmarked) [Il, 8-chloro-4-[(5-chloro-2-indolyl)carbonylamino]-6-(2-fluorophenyl)-1,2,3,4-tetrahydropyrrolo[3,2,1-jk][1,4]benzodiazepin-3-one] | 12.3 | 2552.2 |  |  |  |  |  | 21400
O=C(N[C@@H]1N=C(c2ccccc2)c2cccc3c2N(CC3)C1=O)c1cc2ccccc2[nH]1 [If, (+)-(4R)-4-(2-Indolycarbonylamino)-6-phenyl-1,2,3,4-tetrahydropyrrolo[3,2,1-jk][1,4]benzodiazepin-3-one] | 8640 | 2.8 | 24000 |  |  |  |  | 
O=C(NC1N=C(c2ccccc2F)c2cc(Cl)cc3c2N(CC3)C1=O)c1cc(Cl)cc(Cl)c1 (centres unmarked) [Im, 8-chloro-4-(3,5-dichlorobenzoylamino)-6-(2-fluorophenyl)-1,2,3,4-tetrahydropyrrolo[3,2,1-jk][1,4]benzodiazepin-3-one] | 30.6 | 831.1 |  |  |  |  |  | 25400

Reference: US4929614A, “Benzodiazepines, process and intermediates for the preparation thereof and their application in therapy” (Jouveinal S.A., priority 1988, dated 1990)
